Test results published in patent US20250122192A1, “5-PYRIMIDINECARBOXAMIDE DERIVATIVES AND METHODS OF USING THE SAME” (Rgenta Therapeutics, Inc., priority 2021, published 2025).

Tested on: PMS1
Assay: Mini-gene reporter assay-PMS1
Type: cell-based
Details: Homo sapiens; for IC50: HEK293, PMS1 mini-gene firefly luciferase reporter transiently transfected into HEK293 cells, read-out: PMS1 IC50; for activation at 5 µM: PMS1 mini-gene firefly luciferase reporter in HEK293 cells, read-out: PMS1% Effect at 5 μM
Summary of the method: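 Compound dilution series in duplicate added to transiently transfected HEK293 reporter cells, then incubated; EC50 from Levenberg-Marquardt fit of luminescence. The reporter joins the alternatively skipped exon, its neighbouring introns and exons to firefly luciferase, so induced inclusion gives more signal.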

IC50 [nM]	Compound	activation at 5 µM [%]
500 to 1000	CCOc1nc(N2CCC3CCNCC3C2)ncc1C(=O)Nc1cc(F)c2nc(C)cn2c1 (centres unmarked) [Compound 135]	–
< 500	CCOc1nc(N2CC3CNCCC32)ncc1C(=O)Nc1cc(F)c2nc(C)cn2c1 (centres unmarked) [Compound 136]	–
> 3000	CCOc1nc(N2CCN(C3CCNCC3)CC2)ncc1C(=O)Nc1cc(F)c2nc(C)cn2c1 [Compound 137]	–
1000 to 3000	CCOc1nc(N(C)C2CCCCNC2)ncc1C(=O)Nc1cc(F)c2nc(C)cn2c1 (centres unmarked) [Compound 138]	–
–	CCOc1nc(N2CCNCC(F)(F)C2)ncc1C(=O)Nc1cc(F)c2nc(C)cn2c1 [Compound 140]	< 50
500 to 1000	CCOc1nc(N2CC(C3CCNCC3)C2)ncc1C(=O)Nc1cc(F)c2nc(C)cn2c1 [Compound 141]	–
1000 to 3000	CCOc1nc(N2CCC(C3CNC3)CC2)ncc1C(=O)Nc1cc(F)c2nc(C)cn2c1 [Compound 142]	–
< 500	CCOc1nc(N2CC(C3CNC3)C2)ncc1C(=O)Nc1cc(F)c2nc(C)cn2c1 [Compound 143]	–
> 3000	CCOc1nc(N2CCOC3(CNC3)C2)ncc1C(=O)Nc1cc(F)c2nc(C)cn2c1 [Compound 144]	–
> 3000	CCOc1nc(N2CCOC3(CCCNC3)C2)ncc1C(=O)Nc1cc(F)c2nc(C)cn2c1 (centres unmarked) [Compound 145]	–
< 500	CCOc1nc(N2CCCC(C3CCNCC3)C2)ncc1C(=O)Nc1cc(F)c2nc(C)cn2c1 (centres unmarked) [Compound 146]	–
< 500	CCOc1nc(N2CCCC(C3CCCCN3)C2)ncc1C(=O)Nc1cc(F)c2nc(C)cn2c1 (centres unmarked) [Compound 147]	–
1000 to 3000	CCOc1nc(N2C[C@]3(C)CNC[C@]3(C)C2)ncc1C(=O)Nc1cc(F)c2nc(C)cn2c1 [Compound 148]	–
> 3000	CCOc1nc(N2CC(C)OC3(CCNC3)C2)ncc1C(=O)Nc1cc(F)c2nc(C)cn2c1 (centres unmarked) [Compound 149]	–
1000 to 3000	CCOc1nc(N2CCCCC(C3CNC3)C2)ncc1C(=O)Nc1cc(F)c2nc(C)cn2c1 (centres unmarked) [Compound 150]	–
1000 to 3000	CCOc1nc(N2CC34CCCC3(CNC4)C2)ncc1C(=O)Nc1cc(F)c2nc(C)cn2c1 (centres unmarked) [Compound 151]	–
500 to 1000	CCOc1nc(N2CC3(CCNCC3)CC2C)ncc1C(=O)Nc1cc(F)c2nc(C)cn2c1 (centres unmarked) [Compound 152]	–
–	CCOc1nc(N2CCCC(OC3CNC3)C2)ncc1C(=O)Nc1cc(F)c2nc(C)cn2c1 (centres unmarked) [Compound 153]	50 to 75
< 500	CCNC1CCN(c2ncc(C(=O)Nc3cc(F)c4nc(C)cn4c3)c(OCC)n2)C1 (centres unmarked) [Compound 154]	–
< 500	CCOc1nc(N2CCC(NCCOC)CC2)ncc1C(=O)Nc1cc(F)c2nc(C)cn2c1 [Compound 155]	–
> 3000	CCOc1nc(N2CCCC(C3CNC3)C2)ncc1C(=O)Nc1cc(F)c2nc(C)cn2c1 (centres unmarked) [Compound 159]	–
–	CCOc1nc(N2CC(C)OC3(CCNCC3)C2)ncc1C(=O)Nc1cc(F)c2nc(C)cn2c1 (centres unmarked) [Compound 162]	< 50
< 500	CCOc1nc(N(C)[C@H]2CCCNC2)ncc1C(=O)Nc1cc(F)c2nc(C)cn2c1 [Compound 163]	–
< 500	CCOc1nc(N2CCC(NCC3CC3)CC2)ncc1C(=O)Nc1cc(F)c2nc(C)cn2c1 [Compound 164]	–

IC50 [nM]	Compound	activation at 5 µM [%]
1000 to 3000	CCOc1nc(N2CC(CO)C3(CNC3)C2)ncc1C(=O)Nc1cc(F)c2nc(C)cn2c1 (centres unmarked) [Compound 165]	–
1000 to 3000	CCOc1nc(N2CC34CCCCC3(CNC4)C2)ncc1C(=O)Nc1cc(F)c2nc(C)cn2c1 (centres unmarked) [Compound 166]	–
< 500	CCOc1nc(N(CC)C2CCCNCC2)ncc1C(=O)Nc1cc(F)c2nc(C)cn2c1 (centres unmarked) [Compound 168]	–
1000 to 3000	CCOc1nc(N2CCNCC(O)C2)ncc1C(=O)Nc1cc(F)c2nc(C)cn2c1 (centres unmarked) [Compound 171]	–
–	CCOc1nc(N2CCCC3(CNCCO3)C2)ncc1C(=O)Nc1cc(F)c2nc(C)cn2c1 (centres unmarked) [Compound 172]	< 50
< 500	CCOc1nc(N(C)C2CCCNCC2)ncc1C(=O)Nc1cc(F)c2nc(C)cn2c1 (centres unmarked) [Compound 173]	–
500 to 1000	CCNC1CCCN(c2ncc(C(=O)Nc3cc(F)c4nc(C)cn4c3)c(OCC)n2)C1 (centres unmarked) [Compound 176]	–
< 500	CCOc1nc(N2CCCC(C3CCCN3)C2)ncc1C(=O)Nc1cc(F)c2nc(C)cn2c1 (centres unmarked) [Compound 180]	–
1000 to 3000	CCOc1nc(N2CC[C@@H]3CNC[C@@H]3CC2)ncc1C(=O)Nc1cc(F)c2nc(C)cn2c1 [Compound 181]	–
500 to 1000	CCOc1nc(N2CCC3(CC2)CNC3C(C)C)ncc1C(=O)Nc1cc(F)c2nc(C)cn2c1 (centres unmarked) [Compound 182]	–
> 3000	CCOc1nc(N2CCCC3(CCNC3)C2)ncc1C(=O)Nc1cc(F)c2nc(C)cn2c1 (centres unmarked) [Compound 183]	–
500 to 1000	CCOc1nc(N2CCCC(C3CCCNC3)C2)ncc1C(=O)Nc1cc(F)c2nc(C)cn2c1 (centres unmarked) [Compound 184]	–
1000 to 3000	CCOc1nc(N2CCCC2CNC)ncc1C(=O)Nc1cc(F)c2nc(C)cn2c1 (centres unmarked) [Compound 188]	–
> 3000	COCc1nc(N(C)CC2CNCCO2)ncc1C(=O)Nc1cc(F)c2nc(C)cn2c1 (centres unmarked) [Compound 189]	–
< 500	CCOc1nc(N2CCNC(C)CC2)ncc1C(=O)Nc1cc(F)c2nc(C)cn2c1 (centres unmarked) [Compound 191]	–
500 to 1000	CCOc1nc(N2CCNC3CC32)ncc1C(=O)Nc1cc(F)c2nc(C)cn2c1 (centres unmarked) [Compound 192]	–
500 to 1000	CCOc1nc(N2CCC[C@H]3CNC[C@H]32)ncc1C(=O)Nc1cc(F)c2nc(C)cn2c1 [Compound 193]	–
500 to 1000	CCOc1nc(N2CCCC(N3CCNCC3)C2)ncc1C(=O)Nc1cc(F)c2nc(C)cn2c1 (centres unmarked) [Compound 194]	–
1000 to 3000	CCOc1nc(N2CCOC3(CCNC3)C2)ncc1C(=O)Nc1cc(F)c2nc(C)cn2c1 (centres unmarked) [Compound 195]	–
–	CCOc1nc(N2CCCC2C(=O)N2CCNCC2)ncc1C(=O)Nc1cc(F)c2nc(C)cn2c1 (centres unmarked) [Compound 196]	< 50
< 500	CCOc1nc(N2C[C@@H]3CCCN[C@@H]3C2)ncc1C(=O)Nc1cc(F)c2nc(C)cn2c1 [Compound 197]	–
1000 to 3000	CCOc1nc(N(C)CC2CCCN2)ncc1C(=O)Nc1cc(F)c2nc(C)cn2c1 (centres unmarked) [Compound 200]	–
< 500	CCOc1nc(N2CCC3CCNCC32)ncc1C(=O)Nc1cc(F)c2nc(C)cn2c1 (centres unmarked) [Compound 201]	–
500 to 1000	CCNC1CN(c2ncc(C(=O)Nc3cc(F)c4nc(C)cn4c3)c(OCC)n2)C1 [Compound 202]	–

IC50 [nM]	Compound	activation at 5 µM [%]
< 500	CCOc1nc(N2CCC(C3CCCN3)CC2)ncc1C(=O)Nc1cc(F)c2nc(C)cn2c1 (centres unmarked) [Compound 203]	–
500 to 1000	CCOc1nc(N2CCC3(CC2)CNCCO3)ncc1C(=O)Nc1cc(F)c2nc(C)cn2c1 [Compound 204]	–
500 to 1000	CCOc1nc(N2CCNCCC2C)ncc1C(=O)Nc1cc(F)c2nc(C)cn2c1 (centres unmarked) [Compound 205]	–
< 500	CCOc1nc(N2CC3(CNC3)C2)ncc1C(=O)Nc1cc(F)c2nc(C)cn2c1 [Compound 206]	–
< 500	CCOc1nc(N2CCC3(CCNCC3)CC2)ncc1C(=O)Nc1cc(F)c2nc(C)cn2c1 [Compound 207]	–
< 500	CCOc1nc(N2CCC3(CCCNC3)C2)ncc1C(=O)Nc1cc(F)c2nc(C)cn2c1 (centres unmarked) [Compound 208]	–
500 to 1000	CCOc1nc(N(C)CC2CCNC2)ncc1C(=O)Nc1cc(F)c2nc(C)cn2c1 (centres unmarked) [Compound 210]	–
< 500	CCOc1nc(N2CCC(CNC)C2)ncc1C(=O)Nc1cc(F)c2nc(C)cn2c1 (centres unmarked) [Compound 211]	–
< 500	CCOc1nc(N2CC3(CCNC3)C2)ncc1C(=O)Nc1cc(F)c2nc(C)cn2c1 [Compound 212]	–
< 500	CCOc1nc(N2CCNC(C)C2C)ncc1C(=O)Nc1cc(F)c2nc(C)cn2c1 (centres unmarked) [Compound 213]	–
< 500	CCNC1CCN(c2ncc(C(=O)Nc3cc(F)c4nc(C)cn4c3)c(OCC)n2)CC1 [Compound 214]	–
1000 to 3000	CCOc1nc(N(CC)C2CCCNC2)ncc1C(=O)Nc1cc(F)c2nc(C)cn2c1 (centres unmarked) [Compound 215]	–
< 500	CCOc1nc(N2CCC(CNC)CC2)ncc1C(=O)Nc1cc(F)c2nc(C)cn2c1 [Compound 216]	–
1000 to 3000	CCOc1nc(N(C)CC2CCCNC2)ncc1C(=O)Nc1cc(F)c2nc(C)cn2c1 (centres unmarked) [Compound 217]	–
> 3000	CCOc1nc(N2CC(N3CCNCC3)C2)ncc1C(=O)Nc1cc(F)c2nc(C)cn2c1 [Compound 218]	–
< 500	CCOc1nc(N2CCC3(CCNCC3)C2)ncc1C(=O)Nc1cc(F)c2nc(C)cn2c1 [Compound 219]	–
< 500	CCOc1nc(N2CCC3(CNC3)C2)ncc1C(=O)Nc1cc(F)c2nc(C)cn2c1 [Compound 220]	–
1000 to 3000	CCOc1nc(N2CCN(C3CNC3)CC2)ncc1C(=O)Nc1cc(F)c2nc(C)cn2c1 [Compound 221]	–
1000 to 3000	CCOc1nc(N2CCC(N3CCNCC3)CC2)ncc1C(=O)Nc1cc(F)c2nc(C)cn2c1 [Compound 222]	–
> 3000	CCOc1nc(N2CCOC3(CCNCC3)C2)ncc1C(=O)Nc1cc(F)c2nc(C)cn2c1 [Compound 223]	–
1000 to 3000	CCOc1nc(N2CCN(C3CCNC3)CC2)ncc1C(=O)Nc1cc(F)c2nc(C)cn2c1 (centres unmarked) [Compound 224]	–
< 500	CCOc1nc(N2CCC3(CCNC3)CC2)ncc1C(=O)Nc1cc(F)c2nc(C)cn2c1 [Compound 225]	–

Compound	IC50 [nM]	activation at 5 µM [%]
CCOc1nc(N2C3CCC2CC(NC)C3)ncc1C(=O)Nc1cc(F)c2nc(C)cn2c1 (centres unmarked) [Compound 157]	< 500	–
CCOc1nc(N(C)C2CCNCC2C)ncc1C(=O)Nc1cc(F)c2nc(C)cn2c1 (centres unmarked) [Compound 160]	< 500	–
CCOc1nc(N2CCC3CCC(C2)N3)ncc1C(=O)Nc1cc(F)c2nc(C)cn2c1 (centres unmarked) [Compound 167]	1000 to 3000	–
CCOc1nc(N2C3CCNCC2CC3)ncc1C(=O)Nc1cc(F)c2nc(C)cn2c1 (centres unmarked) [Compound 175]	> 3000	–
CCOc1nc(N2CC3CCCC(C2)N3)ncc1C(=O)Nc1cc(F)c2nc(C)cn2c1 [Compound 185]	1000 to 3000	–
CCOc1nc(N(C)[C@@H]2C[C@H]3CC[C@@H](C2)N3)ncc1C(=O)Nc1cc(F)c2nc(C)cn2c1 [Compound 186]	< 500	–
CCOc1nc(N(C)C2CC3CCC(C2)N3)ncc1C(=O)Nc1cc(F)c2nc(C)cn2c1 (centres unmarked) [Compound 190]	< 500	–
